Results: patent US20140303182A1, “PHARMACEUTICALLY ACCEPTABLE SALTS OF QUINOLINONE COMPOUNDS HAVING IMPROVED PHARMACEUTICAL PROPERTIES” (NOVARTIS AG, priority 2003, published 2014)
“And” between values parts separate entries of the source, which are not always exact repeats. Equal entries are not always repeated. Structures can show the parent of a compound that is named as a salt. Where two headings read alike, the source gives them in different places.

Assays:
[1] = Aqueous equilibrium solubility and pH at saturation; format: physicochemical; conditions: water, 24 hours at 22° C., HPLC, free base equivalent
Crystallinity by XRPD = format: physicochemical
Experimental: XRPD analyses were carried out on a Shimadzu XRD-6000 X-ray powder diffractometer using Cu Kα radiation. The instrument is equipped with a fine focus X-ray tube. The tube voltage and amperage were set to 40 kV and 40 mA, respectively. The divergence and scattering slits were set at 1° and the receiving slit was set at 0.15 mm. Diffracted radiation was detected by a NaI scintillation detector. A theta-two theta continuous scan at 3°/minute (0.4 seconds/0.02° step) from […] was used.

Compaction studies = format: physicochemical; conditions: 200 mg at 5000 psi; for Tensile strength of compact: SC = Strong Cobb
[2] = Chemical stability, solution state (HPLC); format: physicochemical
[3] = Crystal morphology, polarized light microscope; format: physicochemical; conditions: 10× and 40× magnification
[4] = Chemical stability, solid state (HPLC); conditions: solid state
[5] = Hygroscopicity, moisture sorption/desorption; format: physicochemical
[6] = 30° C./60% Relative humidity, listed as Sulphate
[7] = 40° C./70% Relative humidity, listed as Sulphate

## CN1CCN(c2ccc3nc(-c4c(N)c5c(F)cccc5[nH]c4=O)[nH]c3c2)CC1 [Mono-citrate, 4-Amino-5-fluoro-3-[6-(4-methylpiperazin-1-yl)-1H-benzimidazol-2-yl]-1H-quinolin-2-one]
[1]
  Solubility: 0.456 mg FB/mL
[1]; listed as Citrate
  Solubility: 27.2 mg FB/mL
Crystallinity by XRPD
  Crystallinity: crystalline
Crystallinity by XRPD; listed as citrate
  Crystallinity: crystalline

## CN1CCN(c2ccc3nc(-c4c(N)c5c(F)cccc5[nH]c4=O)[nH]c3c2)CC1 [Glycinate, 4-Amino-5-fluoro-3-[6-(4-methylpiperazin-1-yl)-1H-benzimidazol-2-yl]-1H-quinolin-2-one]
[1]
  Solubility: 0.0638 mg FB/mL

## CN1CCN(c2ccc3nc(-c4c(N)c5c(F)cccc5[nH]c4=O)[nH]c3c2)CC1 [Mono-mesylate, 4-Amino-5-fluoro-3-[6-(4-methylpiperazin-1-yl)-1H-benzimidazol-2-yl]-1H-quinolin-2-one]
Compaction studies
  Forms Compact: form compacts
Compaction studies; listed as Mesylate-trial 1
  Tensile strength of compact: 6.9 SC
  Forms Compact: Yes
  Thickness of compact: 2.77 mm
Compaction studies; listed as Mesylate-trial 2
  Tensile strength of compact: 17.9 SC
  Forms Compact: Yes
  Thickness of compact: 2.87 mm
[1]
  Solubility: 185 mg FB/mL and 180 mg FB/mL
[1]; listed as Mesylate
  Solubility: 22.3 mg FB/mL
Crystallinity by XRPD
  Crystallinity: crystalline
Crystallinity by XRPD; listed as Mesylate
  Crystallinity: mixture of crystalline
Crystallinity by XRPD; listed as mesylate
  Crystallinity: crystalline
Crystallinity by XRPD; listed as mono-mesylate
  Crystallinity: mixture of crystalline and amorphous material
[2]; 5° C.
  Area % at Time = 0: 98.70 Area %
  Area % at Time = 7 days: 98.76 Area %
[2]; ambient temperature
  Area % at Time = 0: 98.70 Area %
  Area % at Time = 7 days: 98.77 Area %
[3]
  Morphology: varies from plate to needle
[3]; listed as Mesylate-trial 1
  Morphology: Plate
[3]; listed as Mesylate-trial 2
  Morphology: Needle
[4]; 30° C./60% Relative humidity
  Area % at Time = 0: 98.80 Area %
  Area % at Time = 6 weeks: 98.68 Area %
[4]; 40° C./70% Relative humidity
  Area % at Time = 0: 98.89 Area %
  Area % at Time = 6 weeks: 98.7 Area %

## CN1CCN(c2ccc3nc(-c4c(N)c5c(F)cccc5[nH]c4=O)[nH]c3c2)CC1 [Mono-tartrate, 4-Amino-5-fluoro-3-[6-(4-methylpiperazin-1-yl)-1H-benzimidazol-2-yl]-1H-quinolin-2-one]
[1]; listed as L-Tartrate
  Solubility: 103.4 mg FB/mL
Crystallinity by XRPD
  Crystallinity: crystalline
Crystallinity by XRPD; listed as L-Tartrate
  Crystallinity: mixture of crystalline
Crystallinity by XRPD; listed as L-tartrate
  Crystallinity: mixture of crystalline and amorphous material

## CN1CCN(c2ccc3nc(-c4c(N)c5c(F)cccc5[nH]c4=O)[nH]c3c2)CC1 [Bis-Lactate, 4-Amino-5-fluoro-3-[6-(4-methylpiperazin-1-yl)-1H-benzimidazol-2-yl]-1H-quinolin-2-one]
[1]
  Solubility: 304 mg FB/mL
Crystallinity by XRPD
  Crystallinity: mixture of crystalline
Crystallinity by XRPD; listed as bis-lactate
  Crystallinity: mixture of crystalline and amorphous material
[4]; 30° C./60% Relative humidity
  Area % at Time = 0: 98.71 Area %
  Area % at Time = 6 weeks: 98.64 Area %
[4]; 40° C./70% Relative humidity
  Area % at Time = 0: 98.99 Area %
  Area % at Time = 6 weeks: 97.92 Area %

## CN1CCN(c2ccc3nc(-c4c(N)c5c(F)cccc5[nH]c4=O)[nH]c3c2)CC1 [Bis-Acetate, 4-Amino-5-fluoro-3-[6-(4-methylpiperazin-1-yl)-1H-benzimidazol-2-yl]-1H-quinolin-2-one]
[1]
  Solubility: 31.9 mg FB/mL
Crystallinity by XRPD
  Crystallinity: mixture of crystalline
Crystallinity by XRPD; listed as bis-acetate
  Crystallinity: mixture of crystalline and amorphous material

## CN1CCN(c2ccc3nc(-c4c(N)c5c(F)cccc5[nH]c4=O)[nH]c3c2)CC1 [Maleate, 4-Amino-5-fluoro-3-[6-(4-methylpiperazin-1-yl)-1H-benzimidazol-2-yl]-1H-quinolin-2-one]
[1]
  Solubility: 0.866 mg FB/mL

## CN1CCN(c2ccc3nc(-c4c(N)c5c(F)cccc5[nH]c4=O)[nH]c3c2)CC1 [Bis-mesylate, 4-Amino-5-fluoro-3-[6-(4-methylpiperazin-1-yl)-1H-benzimidazol-2-yl]-1H-quinolin-2-one]
Crystallinity by XRPD
  Crystallinity: mixture of crystalline
Crystallinity by XRPD; listed as bis-mesylate
  Crystallinity: crystalline
[4]; 30° C./60% Relative humidity
  Area % at Time = 0: 99.01 Area %
  Area % at Time = 6 weeks: 98.12 Area %
[4]; 40° C./70% Relative humidity
  Area % at Time = 0: 98.78 Area %
  Area % at Time = 6 weeks: 98.35 Area %

## CN1CCN(c2ccc3nc(-c4c(N)c5c(F)cccc5[nH]c4=O)[nH]c3c2)CC1 [Phosphate, 4-Amino-5-fluoro-3-[6-(4-methylpiperazin-1-yl)-1H-benzimidazol-2-yl]-1H-quinolin-2-one]
[1]
  Solubility: 13.8 mg FB/mL
Crystallinity by XRPD
  Crystallinity: mixture of crystalline
Crystallinity by XRPD; listed as phosphate
  Crystallinity: mixture of crystalline and amorphous material
[4]; 30° C./60% Relative humidity
  Area % at Time = 0: 98.47 Area %
  Area % at Time = 6 weeks: 99.28 Area %
[4]; 40° C./70% Relative humidity
  Area % at Time = 0: 98.84 Area %
  Area % at Time = 6 weeks: 98.86 Area %

## CN1CCN(c2ccc3nc(-c4c(N)c5c(F)cccc5[nH]c4=O)[nH]c3c2)CC1 [BisHCl, 4-Amino-5-fluoro-3-[6-(4-methylpiperazin-1-yl)-1H-benzimidazol-2-yl]-1H-quinolin-2-one]
[1]
  Solubility: 42 mg FB/mL

## CN1CCN(c2ccc3nc(-c4c(N)c5c(F)cccc5[nH]c4=O)[nH]c3c2)CC1 [Sulfate, 4-Amino-5-fluoro-3-[6-(4-methylpiperazin-1-yl)-1H-benzimidazol-2-yl]-1H-quinolin-2-one]
[1]
  Solubility: 19.7 mg FB/mL
Crystallinity by XRPD
  Crystallinity: mixture of crystalline
Crystallinity by XRPD; listed as sulfate
  Crystallinity: mixture of crystalline and amorphous material
[4]; [6]
  Area % at Time = 0: 98.75 Area %
  Area % at Time = 6 weeks: 99.39 Area %
[4]; [7]
  Area % at Time = 0: 98.96 Area %
  Area % at Time = 6 weeks: 98.9 Area %

## CN1CCN(c2ccc3nc(-c4c(N)c5c(F)cccc5[nH]c4=O)[nH]c3c2)CC1 [Hemi-malate, 4-Amino-5-fluoro-3-[6-(4-methylpiperazin-1-yl)-1H-benzimidazol-2-yl]-1H-quinolin-2-one]
[1]
  Solubility: 6.39 mg FB/mL
Crystallinity by XRPD
  Crystallinity: crystalline

## CN1CCN(c2ccc3nc(-c4c(N)c5c(F)cccc5[nH]c4=O)[nH]c3c2)CC1 [Nitrate, 4-Amino-5-fluoro-3-[6-(4-methylpiperazin-1-yl)-1H-benzimidazol-2-yl]-1H-quinolin-2-one]
[1]
  Solubility: 6.7 mg FB/mL

## CN1CCN(c2ccc3nc(-c4c(N)c5c(F)cccc5[nH]c4=O)[nH]c3c2)CC1 [Mono-acetate, 4-Amino-5-fluoro-3-[6-(4-methylpiperazin-1-yl)-1H-benzimidazol-2-yl]-1H-quinolin-2-one]
[1]
  Solubility: 84.4 mg FB/mL
[1]; listed as Acetate
  Solubility: 15.4 mg FB/mL
Crystallinity by XRPD
  Crystallinity: amorphous
Crystallinity by XRPD; listed as Acetate
  Crystallinity: mixture of crystalline
Crystallinity by XRPD; listed as acetate salt
  Crystallinity: amorphous

## CN1CCN(c2ccc3nc(-c4c(N)c5c(F)cccc5[nH]c4=O)[nH]c3c2)CC1 [Bis-Glycinate, 4-Amino-5-fluoro-3-[6-(4-methylpiperazin-1-yl)-1H-benzimidazol-2-yl]-1H-quinolin-2-one]
[1]
  Solubility: 0.11 mg FB/mL

## CN1CCN(c2ccc3nc(-c4c(N)c5c(F)cccc5[nH]c4=O)[nH]c3c2)CC1 [Mono-malate, 4-Amino-5-fluoro-3-[6-(4-methylpiperazin-1-yl)-1H-benzimidazol-2-yl]-1H-quinolin-2-one]
Compaction studies
  Forms Compact: form compacts
[1]; listed as L-Malate
  Solubility: 69 mg FB/mL
Crystallinity by XRPD
  Crystallinity: crystalline
Crystallinity by XRPD; listed as L-Malate
  Crystallinity: mixture of crystalline
Crystallinity by XRPD; listed as L-malate
  Crystallinity: mixture of crystalline and amorphous material
[2]; 5° C.
  Area % at Time = 0: 98.70 Area %
  Area % at Time = 7 days: 98.69 Area %
[2]; ambient temperature
  Area % at Time = 0: 98.70 Area %
  Area % at Time = 7 days: 98.65 Area %
[5]
  hygroscopicity (verdict): non-hygroscopic
[3]
  Morphology: needle

## CN1CCN(c2ccc3nc(-c4c(N)c5c(F)cccc5[nH]c4=O)[nH]c3c2)CC1 [Hydrochloride, 4-Amino-5-fluoro-3-[6-(4-methylpiperazin-1-yl)-1H-benzimidazol-2-yl]-1H-quinolin-2-one]
[1]
  Solubility: 26.3 mg FB/mL
